Laboratory results from patent publication US11939402B2, “Antifungal peptides, compounds including the same, and methods of use thereof” (priority 2022, dated 2024).
≈ marks a conversion by molar mass, not a printed value. Where a SMILES comes first, the peptide text is derived from it. The star is where a group is joined. Myristoyl = CCCCCCCCCCCCCC(=O)*

Columns and labels:
[1] = system: C. neoformans wild type strain H99; details: for FIC ug/mL H99 Peptide: concentration of the peptide in combination with caspofungin
Protocol: Microbes were prepared in the same manner as the MIC assay. […] 100 μL of RPMI media was added to the first 8 wells in the first row. […] The 100 μL of media with drug was serially diluted from the first row to the final row. […] Column 11 was the no growth control, and 12 was the no drug control. The plate was inoculated with microbes in the same manner as the MIC assay. Again, 200 uL was the operating volume, 500 CFU per well, 2.5*10^3 cell/mL. Plates were incubated for 48 hours at 37° C. and read thereafter. The Fractional Inhibitory Concentration Index were calculated as follows:
Where the MICA and MICB are the MIC values of drugs A and B alone and FICA and FICB are the Fractional Inhibitory concentrations of drugs A and B in the presence of each other, respectively.

[2] = system: C. neoformans cdc50Δ mutant strain; type: cell-based, Cryptococcus neoformans; details: alone
Protocol: (§1) The assays followed standard CLSI protocol for broth microdilution assays using yeasts.(32) Microbes were passaged in YPD media at 37° C. with mixing for 2 days before harvesting with an inoculation loop to prepare monocultures on Sabouraud Dextrose Agar (SDA) plates. Monocultures on SDA plates were incubated for 2 days at 37° C. before harvesting cells for microdilution assays. RPMI media (100 μL) was charged to each of the 96 wells in a 96 well plate, with an additional 100 μL in the first column. Peptide-DMSO solution (4 μL) at 12.8 mg/mL was charged to each of the wells in the first column. The 100 μL was serially diluted by a factor of 2 from the first column to the 11th column. Microbe inoculant was then prepared. An inoculation loop was used to transfer 1-3 colonies of cells to 1 mL phosphate buffer solution (PBS). The PBS and microbe solution was made uniform by vortex mixing. Cell concentration was computed by comparing the absorbance at 530 nm to 1× McFarland standard solution and multiplying the resulting ratio by 10^7 cell/mL conversion factor. Plate inoculant was prepared by diluting the PBS microbe solution to 5000 cell/mL, in RPMI media. A 100 μL aliquot of cells was transferred to each of the wells on the plate other than column 11 for the no growth control. The operating volume was 200 μL, with 500 CFU per well for a final concentration of 2.5*10^3 cells/mL.

[3] = system: C. neoformans cdc50Δ mutant strain; type: cell-based, Cryptococcus neoformans; details: for FIC ug/mL ΔCDC50 Peptide: concentration of the peptide in combination with caspofungin
Protocol: The Fractional Inhibitory Concentration Index were calculated as follows: […]

[4] = system: C. neoformans cells; assay: AF350-Annexin V / propidium iodine flow cytometry assay (exofacial phosphatidylserine); type: cell-based, Cryptococcus neoformans; details: 0.128 mg/mL peptide, 20 minutes at 25° C.; control 0.2±0.1%
Protocol: Stock microbes were defrosted from the −80° C. freezer and were passed twice for 48 hours each in YPD media. The YPD media was removed by spinning down and the supernatant was decanted. Pelletized cells were resuspended in 1 mL PBS media and washed for 5 minutes with incubation at 25° C. and 250 RPM. Washed cells were spun down again and suspended in 1 mL of PBS solution. cells were diluted 20-fold into 1 mL fungal working solution in an eppendorf. Cell concentration was quantified via comparison to 1× McFarlain's standard on a plate reader using the absorbance value at 530 nm. An aliquot of 1*10^6 cells in 100 μL was created (1*10^7 cell/mL). […] The cells were incubated for 20 minutes at 25° C. and 250 RPM. Baseline and experimental samples were prepared in triplicate. Cells were stained using an operating concentration of 0.001 mg/mL Propidium Iodine (PI) and a 40-fold dilution of AlexaFluor 350 labelled annexin V as per manufactures instructions. After staining the cells, samples were spun down and supernatant decanted. Cells were then fixed in 4% formaldehyde for 5 minutes. Fixed cells were spun down and supernatant decanted and resuspended in 400 μL 1% formaldehyde for flowcytometry. Samples were collected at a slow flow rate on a MACS Quant 10 device (Miltenyi Biotech, Auburn, CA) with 20,000 events collected per injection.
It was sought to determine whether the activities of the peptides were related to the lipid-flipping activity of the P4-ATPase. […] The intensity of the AF350-annexin V signal corresponds to concentration of PS on the exofacial side of the membrane. The propidium iodine signal corresponds to cell viability.
Single cells were first selected and gated based on morphology to ensure homogeneity among the cell population (4A, 4B). Cells with low propidium iodine intensity (PI-A<9 RU) and high AF350-annexin V intensity (Annexin V-A>9 RU) (4C, 4D) were examined. Under these gating parameters there should be, respectively, low non-specific cell death and high exofacial PS.

[5] = system: C. neoformans wild type strain H99; assay: microbe, parasite or virus in culture; type: cell-based, Cryptococcus neoformans; details: wild-type H99, alone, read at 24 and 48 hours, 37° C.
Protocol: as §1, with “Peptide-DMSO solution (4 μL) at 12.8 mg/mL was charged to each of the wells in the first column.” left out

[6] = system: C. neoformans H99; assay: SDS and plate spotting assay; type: cell-based, Cryptococcus neoformans; details: H99 pre-treated with peptide at 128 for one hour; versus untreated or DMSO controls
Protocol: To test cell integrity, C. neoformans strains from 3 ml YPD overnight cultures were washed, resuspended, and serially diluted (1:10) in dH2O and spotted (5 μl) on YPD agar plates or YPD agar plates containing 0.03% SDS and incubated for 2 days at 30° C. and 37° C.
Of each strain, yeast cells were inoculated into liquid YPD with 128 μg/ml or 64 μg/ml peptide and co-incubated for 1 h at 30° C. And then, ten-fold serial dilutions were prepared, and 5 μl of each was spotted on YPD and YPD agar plates containing 0.03% SDS. The results were photographed after a 48 h incubation. Their growth was determined by serial dilutions and the fungal colonies were assessed by CFU numbers.
Briefly, cultures of C. neoformans were grown in YPD and then spotted on YPD plates containing 0.03% SDS.

[7] = system: human red blood cells (RBCs); details: 1 hour 37° C.; relative to Triton X-100 control
Protocol: Hemolysis assays were preformed using human red blood cells (RBCs), which were provided by Interstate Blood Bank (Philadelphia, PA) and stored immediately at 4° C. upon arrival. […] Free heme was extracted from stored RBCs washing in PBS with gentle centrifugation at 1000 RPM for 5 minutes. Washed cells resuspended to 4 mL in PBS and counted using a hemocytometer. […] Red blood cells were adjusted to 5*10^8 cells/mL and 50 uL was added to each of the wells. Operating conditions were 100 μL and 2.5*10^8 cell/mL. The positive control used as 2 μL of 1% Triton X-100. The plate was incubated at 37° C. for 1 hour. The resulting plate was spun down at 1000 RPM for 5 minutes. 20 μL supernatant was transferred to 80 μL PBS in a fresh 96 well plate for analysis (operating volume 100 μL.) A Spectra Max 340 plate reader (Molecular Devices, Sunnyvale, CA) was used to measure the absorbance of the analysis plate at 410 nm. The scans were run in triplicate. Averages and standard deviations between scans and replicates were computed. The negative control was subtracted from all the data points. The resulting corrected data was normalized by the corrected positive control.

[8] = system: C. neoformans cdc50Δ mutant strain; details: earlier mutation study / literature; cited from earlier work
[9] = system: C. neoformans wild type strain H99; details: earlier mutation study; cited from earlier work

Compound | MIC of caspofungin in the presence of peptide ([1]; 0.5 μg/mL peptide, H99, caspofungin alone 16 μg/mL) [µg/mL] | FIC ug/mL H99 Peptide ([1]; H99) [µg/mL] | FIC Index H99 ([1]; peptide with caspofungin, H99 (table S1)) | MIC ug/mL ΔCDC50 [2] [µg/mL] | FIC ug/mL ΔCDC50 Peptide [3] [µg/mL] | FIC Index ΔCDC50 ([3]; peptide with caspofungin, ΔCDC50 (table S1)) | percentage of cells with low propidium iodine intensity (PI-A<9 RU) and high AF350-annexin V intensity (Annexin V-A>9 RU) [4] | MIC ug/mL H99 [5] [µg/mL] | MIC of caspofungin in the presence of the AW9-Ma peptide ([1]; C. neoformans wild type) [µg/mL] | growth (colony forming units) on agar medium with 0.03% SDS [6] | hemolysis of human RBC [7] | MIC of caspofungin in cdc50Δ [8] [µg/mL] | MIC of caspofungin in wild-type strain H99 [9] [µg/mL] | MIC ([5]; Cryptococcus neoformans, read-out: MIC ug/mL H99) [µg/mL]
CCCCCCCCCCCCCC(=O)N[C@@H](CO)C(=O)N[C@@H](CCC(=O)O)C(=O)N[C@@H](CO)C(=O)NCC(=O)N[C@H](C(=O)N[C@@H](C)C(=O)N[C@@H](Cc1c[nH]c2ccccc12)C(=O)NCC(=O)NCC(=O)N[C@H](C(=O)N[C@@H](CCCCN)C(=O)N[C@@H](CCCCN)C(=O)N[C@@H](CC(N)=O)C(=O)N[C@@H](Cc1ccc(O)cc1)C(=O)N[C@@H](C)C(=O)O)[C@@H](C)CC)[C@@H](C)CC [AS15-Ma] (Myristoyl-SESGIAWGGIKKNYA-OH) | 8 | 0.5 | 0.5-1 | 8 (≈ 4.47 µM) | 0.25 | 0.094 | 12.1±2.0% | >128 |  |  |  |  |  | 
CCCCCCCCCCCCCC(=O)N[C@@H](Cc1c[nH]c2ccccc12)C(=O)NCC(=O)NCC(=O)N[C@H](C(=O)N[C@@H](CCCCN)C(=O)N[C@@H](CCCCN)C(=O)N[C@@H](CC(N)=O)C(=O)N[C@@H](Cc1ccc(O)cc1)C(=O)N[C@@H](C)C(=O)O)[C@@H](C)CC [AW9-Ma] (Myristoyl-WGGIKKNYA-OH) |  | 16 |  | 2 (≈ 1.6 µM) | 0.125 |  | 67.6%±2.3 | 64 (≈ 51.3 µM) | 4 | significantly reduced growth | low amounts of hemolysis |  |  | 
CC[C@H](C)C[C@H](C)CCCCCCCCC(=O)N[C@H]1C[C@@H](O)[C@@H](NCCN)NC(=O)[C@@H]2[C@@H](O)CCN2C(=O)[C@H]([C@H](O)CCN)NC(=O)[C@H]([C@H](O)[C@@H](O)c2ccc(O)cc2)NC(=O)[C@@H]2C[C@@H](O)CN2C(=O)[C@H]([C@@H](C)O)NC1=O [Caspofungin, reference compound] |  |  |  | 4 (≈ 3.66 µM) |  |  |  |  |  |  |  | 4 | 16 | 16 (≈ 14.6 µM)
